Earlier results, collected in patent US20240350409A1, “TRANSDERMAL DELIVERY FORMULATIONS AND METHODS FOR THE MANUFACTURE THEREOF” (LifeActive, Inc., priority 2023, published 2024).

Conditions: in H2O at ~15-20° C.; weak organic acids

Maleic Acid
pKa2: 6.07

Citric Acid
pKa3: 6.40
